Source: patent publication US5439928A, “Aromatase inhibiting 4(5)-imidazoles” (Orion-yhtyma Oy, priority 1993, dated 1995)

target: desmolase (CSCC); assay: Cholesterol side chain cleavage (CSCC, desmolase) inhibition, mitochondrial fraction from human placenta or bovine adrenals; assay type: biochemical; conditions: substrate 5 μM, 30 min, 37° C., read-out: IC-50 CSCC (desmolase)

| Compound | IC50 [µM] |
| --- | --- |
| Cc1cccc(C)c1CCCCC(c1ccc(F)cc1)c1c[nH]cn1 (centres unmarked) [Compound 13c, 4-[1-(4-fluorophenyl)-5-(2,6-dimethylphenyl)-pentyl]-1H-imidazole] | 31 |
| COc1ccc(C(CCCc2c[nH]cn2)c2ccc(OC)cc2)cc1 [Compound 12a, 4-[4,4-bis(4-methoxyphenyl)butyl]-1H-imidazole] | 46 |
| Cc1cccc(C(CCCc2cncn2Cc2ccccc2)c2ccccc2)c1 (centres unmarked) [Compound 3a, 1-benzyl-5-[4-(3-methylphenyl)-4-phenylbutyl]-1H-imidazole] | 38 |
| Fc1ccccc1C(CCCc1c[nH]cn1)c1ccccc1 (centres unmarked) [Compound 20a, 4-[4-(2-fluorophenyl)-4-phenylbutyl]-1H-imidazole] | 38 |
| Fc1ccc(C(CCc2ccccc2)Cc2c[nH]cn2)cc1 (centres unmarked) [Compound 17c, 4-[2-(4-fluorophenyl)-4-phenylbutyl]-1H-imidazole] | 28 |
| Cc1ccc(C(CCCc2c[nH]cn2)c2ccc(C)cc2)cc1 [Compound 17a, 4-[4,4-bis(4-methylphenyl)butyl]-1H-imidazole] | 110 |
| Fc1ccc(C(CCCc2ccccc2)c2c[nH]cn2)cc1 (centres unmarked) [Compound 10c, 4-[1-(4-fluorophenyl)-4-phenylbutyl]-1H-imidazole] | 31 |
| COc1ccc(C(CCCc2c[nH]cn2)c2ccccc2)cc1 (centres unmarked) [Compound 11a, 4-[4-(4-methoxyphenyl)-4-phenylbutyl]-1H-imidazole] | 190 |
| Cc1ccc(C(CCCc2cncn2Cc2ccccc2)c2ccccc2)cc1 (centres unmarked) [Compound 2a, 1-benzyl-5-[4-(4-methylphenyl)-4-phenylbutyl]-1H-imidazole] | 50 |
| Cc1cc(C)cc(CCCCC(c2ccc(F)cc2)c2c[nH]cn2)c1 (centres unmarked) [Compound 5c, 4-[5-(3,5-dimethylphenyl)-1-(4-fluorophenyl)-pentyl]-1H-imidazole] | 80 |
| Fc1ccc(C(CCCCc2ccccc2)c2c[nH]cn2)cc1 (centres unmarked) [Compound 1c, 4-[1-(4-fluorophenyl)-5-phenylpentyl]-1H-imidazole] | 19 |
| c1ccc(CC(CCCc2c[nH]cn2)c2ccccc2)cc1 (centres unmarked) [Compound 8a, 4-(4,5-diphenylpentyl)-1H-imidazole] | 27 |
| COc1ccc(CCCCC(c2ccc(F)cc2)c2c[nH]cn2)cc1 (centres unmarked) [Compound 12c, 4-[1-(4-fluorophenyl)-5-(4-methoxyphenyl)pentyl]-1H-imidazole] | 22.5 |
| Fc1ccc(CCC(c2ccc(F)cc2)c2c[nH]cn2)cc1 (centres unmarked) [Compound 14c, 4-[1,3-bis(4-fluorophenyl)propyl]-1H-imidazole] | 22 |
| c1ccc(C(CCCCc2c[nH]cn2)c2ccccc2)cc1 [Compound 18a, 4-(5,5-diphenylpentyl)-1H-imidazole] | 68 |
| Cc1cc(C)cc(C(CCCc2c[nH]cn2)c2ccccc2)c1 (centres unmarked) [Compound 14a, 4-[4-(3,5-dimethylphenyl)-4-phenylbutyl]-1H-imidazole] | 65 |
| Nc1ccc(C(CCCc2c[nH]cn2)c2ccc(N)cc2)cc1 [Compound 25a, 4-[4,4-bis(4-aminophenyl)butyl]-1H-imidazole] | 210 |
| Fc1ccc(C(CCCc2c[nH]cn2)c2ccccc2)cc1 (centres unmarked) [Compound 21a, 4-[4-(4-fluorophenyl)-4-phenylbutyl]-1H-imidazole] | 80 |
| Fc1ccc(CCCC(c2ccc(F)cc2)c2c[nH]cn2)cc1 (centres unmarked) [Compound 15c, 4-[1,4-bis(4-fluorophenyl)butyl]-1H-imidazole] | 29 |
| Fc1ccc(CCC(Cc2c[nH]cn2)c2ccc(F)cc2)cc1 (centres unmarked) [Compound 18c, 4-[2,4-bis(4-fluorophenyl)butyl]-1H-imidazole] | 20 |
| Cc1ccc(CCCCC(c2ccc(F)cc2)c2c[nH]cn2)cc1 (centres unmarked) [Compound 4c, 4-[1-(4-fluorophenyl)-5-(4-methylphenyl)pentyl]-1H-imidazole] | 170 |

| Compound | IC50 [µM] |
| --- | --- |
| Cc1ccccc1C(CCCc1c[nH]cn1)c1ccccc1 (centres unmarked) [Compound 5a, 4-[4-(2-methylphenyl)-4-phenylbutyl]-1H-imidazole] | 29 |
| c1ccc(C(CCCCCc2c[nH]cn2)c2ccccc2)cc1 [Compound 19a, 4-(6,6-diphenylhexyl)-1H-imidazole] | 61 |
| O=[N+]([O-])c1ccc(C(CCCc2c[nH]cn2)c2ccc([N+](=O)[O-])cc2)cc1 [Compound 24a, 4-[4,4-bis(4-nitrophenyl)butyl]-1H-imidazole] | 37 |
| Cc1ccccc1CCCCC(c1ccc(F)cc1)c1c[nH]cn1 (centres unmarked) [Compound 2c, 4-[1-(4-fluorophenyl)-5-(2-methylphenyl)pentyl]-1H-imidazole] | 16 |
| Cc1ccc(C(CCCc2c[nH]cn2)c2ccccc2)cc1C (centres unmarked) [Compound 15a, 4-[4-(3,4-dimethylphenyl)-4-phenylbutyl]-1H-imidazole] | 39 |
| Cc1cccc(C(CCCc2c[nH]cn2)c2cc(C)cc(C)c2)c1 (centres unmarked) [Compound 16a, 4-[4-(3,5-dimethylphenyl)-4-(3-methylphenyl)butyl]-1H-imidazole] | 95 |
| Fc1ccc(C(CCCc2c[nH]cn2)c2ccc(F)cc2)cc1 [Compound 23a, 4-[4,4-bis(4-fluorophenyl)butyl]-1H-imidazole] | 175 |
| Cc1cccc(C(CCCc2c[nH]cn2)c2cccc(C)c2)c1 [Compound 13a, 4-[4,4-bis(3-methylphenyl)butyl]-1H-imidazole] | 48 |
| Cc1ccc(C(CCCc2c[nH]cn2)c2ccccc2)cc1 (centres unmarked) [Compound 1a, 4-[4-(4-methylphenyl)-4-phenylbutyl]-1H-imidazole] | 96 |
| c1ccc(C(CCCc2c[nH]cn2)c2ccccc2)cc1 [Compound 9a, 4-(4,4-diphenylbutyl)-1H-imidazole] | 320 |
| c1ccc(CCC(c2ccccc2)c2c[nH]cn2)cc1 (centres unmarked) [Compound 7c, 4-(1,3-diphenylpropyl)-1H-imidazole] | 7.5 |
| C(=Cc1c[nH]cn1)CC(c1ccccc1)c1ccccc1 [Compound 22a, 4-(4,4-diphenyl-1-butenyl)-1H-imidazole] | 165 |
| CCc1ccc(C(CCCc2c[nH]cn2)c2ccccc2)cc1 (centres unmarked) [Compound 26a, 4-[4-(4-ethylphenyl)-4-phenylbutyl]-1H-imidazole] | 65 |
| Cc1cccc(CCCCC(c2ccc(F)cc2)c2c[nH]cn2)c1 (centres unmarked) [Compound 3c, 4-[1-(4-fluorophenyl)-5-(3-methylphenyl)pentyl]-1H-imidazole] | 57 |
| COc1cccc(CCCCC(c2ccc(F)cc2)c2c[nH]cn2)c1 (centres unmarked) [Compound 11c, 4-[1-(4-fluorophenyl)-5-(3-methoxyphenyl)pentyl]-1H-imidazole] | 12 |
| N#Cc1ccc(C(CCc2ccc(F)cc2)Cc2c[nH]cn2)cc1 (centres unmarked) [Compound 19c, 4-[2-(4-cyanophenyl)-4-(4-fluorophenyl)butyl]-1H-imidazole] | 6.6 |
| Cc1ccccc1C(CCCc1cncn1Cc1ccccc1)c1ccccc1 (centres unmarked) [Compound 6a, 1-benzyl-5-[4-(2-methylphenyl)-4-phenylbutyl]-1H-imidazole] | 32 |
| Fc1ccc(C(CCc2ccccc2)c2c[nH]cn2)cc1 (centres unmarked) [Compound 9c, 4-[1-(4-fluorophenyl)-3-phenylpropyl]-1H-imidazole] | 22 |
| Cc1cccc(C(CCCc2c[nH]cn2)c2ccccc2)c1 (centres unmarked) [Compound 4a, 4-(4-(3-methylphenyl)-4-phenylbutyl]-1H-imidazole] | 7.5 |
| c1ccc(CCC(Cc2c[nH]cn2)c2ccccc2)cc1 (centres unmarked) [Compound 16c, 4-(2,4-diphenylbutyl)-1H-imidazole] | 12 |

tested on: DMBA-induced rat mammary adenocarcinomas; assay: Anti-tumour effect in vivo against DMBA-induced rat mammary adenocarcinomas; conditions: 3 mg/kg, daily for five weeks, female rats; control 3
Procedure: The anti-tumour effect was investigated in vivo against DMBA-induced rat mammary adenocarcinomas by the following method. Mammary adenocarcinoma was induced with DMBA in 50±2 days old female rats. Treatment with the compound under test was started after palpable tumours had appeared. Tumour size and amount of tumours were evaluated once a week. Tumour sizes in the control group, treated with solvent, were compared with the test groups. Daily administration schedule was employed for five weeks and animals were sacrificed. The change in tumour sizes was evaluated. Results were evaluated as changes in the sizes of tumours and divided into three groups, namely increasing, stable and decreasing sizes of tumours.

| Compound | Number of tumours decreasing |
| --- | --- |
| c1ccc(C(CCCc2c[nH]cn2)c2ccccc2)cc1 [Compound 9a, 4-(4,4-diphenylbutyl)-1H-imidazole] | 2 |

same assay, conditions: 3 mg/kg, daily for five weeks, female rats; control 21

| Compound | Number of tumours stable |
| --- | --- |
| c1ccc(C(CCCc2c[nH]cn2)c2ccccc2)cc1 [Compound 9a, 4-(4,4-diphenylbutyl)-1H-imidazole] | 14 |

same assay, conditions: 3 mg/kg, daily for five weeks, female rats; control 42

| Compound | Number of tumours increasing |
| --- | --- |
| c1ccc(C(CCCc2c[nH]cn2)c2ccccc2)cc1 [Compound 9a, 4-(4,4-diphenylbutyl)-1H-imidazole] | 37 |

same assay, conditions: 30 mg/kg, daily for five weeks, female rats; control 3

| Compound | Number of tumours decreasing |
| --- | --- |
| c1ccc(C(CCCc2c[nH]cn2)c2ccccc2)cc1 [Compound 9a, 4-(4,4-diphenylbutyl)-1H-imidazole] | 21 |

same assay, conditions: 30 mg/kg, daily for five weeks, female rats; control 21

| Compound | Number of tumours stable |
| --- | --- |
| c1ccc(C(CCCc2c[nH]cn2)c2ccccc2)cc1 [Compound 9a, 4-(4,4-diphenylbutyl)-1H-imidazole] | 3 |

same assay, conditions: 30 mg/kg, daily for five weeks, female rats; control 42

| Compound | Number of tumours increasing |
| --- | --- |
| c1ccc(C(CCCc2c[nH]cn2)c2ccccc2)cc1 [Compound 9a, 4-(4,4-diphenylbutyl)-1H-imidazole] | 15 |
